Source: patent US20090023784A1, “USE OF DEFERIPRONE AND METHODS TO TREAT AND/OR PREVENT FRIEDREICH ATAXIA RESULTING FROM INTRACELLULAR MISHANDLING OF IRON” (priority 2006, published 2009)

Columns and labels:
[1] = Pilot trial: adverse events and biological parameters (hemoglobin, plasma iron, ferritin); type: in vivo, human
Text: Ten adolescents (four males, six females aged 14 to 23 yrs) with a diagnosis of Friedreich ataxia, confirmed by detection of a trinucleotide-repeat expansion in the first intron of the frataxin gene, were studied. Patients received deferiprone (Ferriprox™, Apotex Inc., Toronto, Canada) orally, in two doses for 1-5 months. Three patients were included, sequentially, for a minimum period of two months at each dose. Patient enrollment was staggered by two-weeks to enable monitoring of response. In the absence of toxicity, and with evidence of efficacy in any of the first 3 patients, a second group of 3 patients would be included at the same dose for a total duration of 6 months. If there was an absence of both efficacy and toxicity, the second group of three patients would be administered a higher dose. If toxicity developed, the current dose would be suspended and the trial resumed with the next group of patients at a lower dose. The patients were on idebenone (10 mg/kg/day, in three doses) for at least two years prior to inclusion and were kept on the drug at the same dose for the duration of the trial. MRI examinations were done at inclusion and at 1, 2, 4 and 6 months. The protocol was promoted by Assistance Publique-Hopitaux de Paris and approved by the local ethical committee and registered at the National Health Authority (AFSSAPS) and at the International Protocol Registration System (www.clinicaltrials.gov). A written informed consent was obtained from patients and parents.
The International Cooperative Ataxia Rating Score (ICARS) was used to assess the symptoms of ataxia before and after 1-5 months (Cano et al. International cooperative ataxia rating scale (ICARS): Appropriate for studies of Friedreich's ataxia? Mov Disord 2005; 20:1585-91). […] Patients were monitored for neutropenia, agranulocytosis, musculoskeletal pains and zinc deficiency and had weekly blood counts, plasma iron, serum ferritin and transferrin concentration measurements, as well as assessments of renal and liver function.

[2] = system: iron accumulation in dentate nuclei; experiment: MRI R2* measurement of brain iron in the pilot trial; type: in vivo, human; conditions: 20-30 mg/kg/day oral, patients before 17.4±1.6, controls 13.7±0.6
Text: Multiple-gradient echo sequence was used to monitor the iron concentrations in the brain (Waldvogel et al. Increased iron in the dentate nucleus of patients with Friedrich's ataxia. Ann Neurol 1999; 46:123-5), using a 1.5T Signa unit (GE Medical Systems, Milwaukee, Wisc., USA) using phase array head coil. Deep gray structures were localized by using a T2*-weighted echo-planar sequence (TR 3000 ms, TE 60 ms, eight averages, field of view: 24 cm, 256×224 matrix and slice thickness : 5 mm, 24 slices/1.1 min). A voxel englobing the left and right nuclei was positioned on the largest section of dentate nuclei (dimensions 6×3×2 cm^3). Data acquisition allowing iron monitoring was performed by using a single-slice multi-gradient-echo sequence (TR: 400 ms, flip angle: 50° to maximize gray matter signal, acquisition time: 3 minutes).
The determination of R2* was performed by using data of the multi-gradient echo sequence. In each pixel, the signals Si of the ten images obtained at echo times TEi (−i=1.10) were used to calculate the parameter R2* by adjustment of the signal decay according to the equation Si=So.exp (−R2*.TEi). A parametric image of local R2* values was calculated with the same spatial resolution than the native images. The mean value of R2* was calculated in various regions of interest, all determined by the same experimental radiologist. […]

iron-loaded rats = experiment: Tissue iron content (ICP-MS) in iron-loaded rats treated with deferiprone; type: in vivo; conditions: 100 mg/kg daily oral gavage
Protocol: As part of a larger study comparing iron chelators, we conducted histologic examination and electron microscopy (EM) of tissues following iron loading (100 mg/kg iron dose intraperitoneally twice weekly for four weeks) in rats (200-250 g) and treatment with deferiprone. Two control groups of rats were studied, one with no iron loading (“Naïve”) and the other with iron loading but no iron chelation.
Deferiprone was administered five times weekly (daily Monday to Friday). The animals received 89 doses in 127 days of 100 mg/kg daily, by oral gavage.
Iron content in micrograms per gram dry tissue±SD as determined by ICP-MS

With `Cc1c(O)c(=O)ccn1C` [Deferiprone, 3-hydroxy-1,2-dimethylpyridin-4-one] the signs of toxicity ([1]; 20 mg/kg/day oral) was “without signs of toxicity, other than minor adverse effects, such as nausea”, the adverse events ([1]; 80 mg/kg/day oral, first patient (P1), terminated at day 17, slowly reversed on drug termination) was “fatigue, headache, nausea, dizziness, then floppiness, poor head control, abnormal eye movements and fluctuating consciousness” and the “impact on the levels of hyposideremic anemia and hypoferritinemia” value ([1]; regardless of the dose (20 and 30 mg/kg/day)) was “negligible impact”. For the same compound, the “relaxation rate R2* in dentate nuclei” value ([2]; after one month) was 16.6 ± 1.3 s⁻¹, the “relaxation rate R2* in dentate nuclei” value ([2]; after two months) was 15.9 ± 0.6 s⁻¹ and the “Iron content, Skeletal Muscle” value (iron-loaded rats; 89 doses in 127 days, ±SD, Fe-control 205 ± 109, Naive 50 ± 17) was 146 ± 49 micrograms per gram dry tissue. For the same compound, the “Iron content, Thyroid” value (iron-loaded rats; 89 doses in 127 days, ±SD, Fe-control 583 ± 275, Naive 95 ± 13) was 425 ± 228 micrograms per gram dry tissue, the “Iron content, Kidney” value (iron-loaded rats; 89 doses in 127 days, ±SD, Fe-control 801 ± 39, Naive 305 ± 80) was 642 ± 104 micrograms per gram dry tissue and the “Iron content, Heart” value (iron-loaded rats; 89 doses in 127 days, ±SD, Fe-control 1,088 ± 36, Naive 276 ± 25) was 586 ± 143 micrograms per gram dry tissue. The “Iron content, Lung” value (iron-loaded rats; 89 doses in 127 days, ±SD, Fe-control 1,234 ± 227, Naive 376 ± 45) was 1065 ± 101 micrograms per gram dry tissue, the “Iron content, Liver” value (iron-loaded rats; 89 doses in 127 days, ±SD, Fe-control 11,534 ± 554, Naive 376 ± 127) was 7,780 ± 1,637 micrograms per gram dry tissue and the “effect on iron levels in organs” value (iron-loaded rats; iron-loaded rats) was “decreased the iron levels in the liver and heart and most other organs”.
